# Test results published in ChEMBL document CHEMBL1129870, “INCORPORATION OF CONFORMATIONALLY CONSTRAINED PHENYLALANINE DERIVATIVES TIC, SIC, HIC AND NIC INTO A CHOLECYSTOKININ-B/GASTRIN RECEPTOR ANTAGONIST” (Bioorg Med Chem Lett, 1997).
# What was measured:
# [1] = target: T1, Gastrin/cholecystokinin type B receptor (Rattus norvegicus) (UniProt P30553); test: Evaluated for Cholecystokinin type B receptor antagonistic activity in isolated lumen-perfused immature rat stomach; assay type: functional, tissue-based
# T1 sequence (whole entry): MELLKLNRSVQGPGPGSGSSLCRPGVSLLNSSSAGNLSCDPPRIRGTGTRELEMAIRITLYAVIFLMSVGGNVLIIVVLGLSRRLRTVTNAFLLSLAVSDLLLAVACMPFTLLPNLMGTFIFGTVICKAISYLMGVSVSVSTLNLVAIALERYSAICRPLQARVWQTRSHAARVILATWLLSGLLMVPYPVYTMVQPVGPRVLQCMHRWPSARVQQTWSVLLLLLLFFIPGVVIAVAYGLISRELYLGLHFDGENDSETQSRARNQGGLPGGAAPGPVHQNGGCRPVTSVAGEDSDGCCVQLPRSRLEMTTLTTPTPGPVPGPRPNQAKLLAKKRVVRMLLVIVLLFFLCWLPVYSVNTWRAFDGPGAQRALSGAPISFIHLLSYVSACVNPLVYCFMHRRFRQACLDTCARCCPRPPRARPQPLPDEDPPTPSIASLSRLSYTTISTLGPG
# [2] = target: T2, Gastrin/cholecystokinin type B receptor (Mus musculus, UniProt P56481); test: Evaluated for Cholecystokinin type B receptor antagonistic activity in which 20 pM [125I]BH-CCK-8S was used to label CCKB/gastrin binding sites in mouse cortical homogenates
# T2 sequence (P56481 whole entry): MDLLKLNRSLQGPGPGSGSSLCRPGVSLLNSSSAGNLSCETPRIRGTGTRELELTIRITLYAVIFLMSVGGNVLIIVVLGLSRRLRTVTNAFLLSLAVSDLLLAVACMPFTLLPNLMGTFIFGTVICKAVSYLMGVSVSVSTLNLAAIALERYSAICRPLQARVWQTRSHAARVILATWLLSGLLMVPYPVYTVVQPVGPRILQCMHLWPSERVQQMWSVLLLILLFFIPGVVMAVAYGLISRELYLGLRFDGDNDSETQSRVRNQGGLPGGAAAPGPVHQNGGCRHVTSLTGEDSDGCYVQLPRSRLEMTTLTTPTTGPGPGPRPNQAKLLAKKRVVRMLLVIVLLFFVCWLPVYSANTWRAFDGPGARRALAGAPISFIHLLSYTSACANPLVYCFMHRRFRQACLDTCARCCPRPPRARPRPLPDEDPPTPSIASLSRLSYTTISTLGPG
SMILES,pKB [1],IC50 [2]
O=C(O)c1cc(NC(=O)C2Cc3ccccc3CCN2C(=O)c2cc3[nH]cnc3cc2C(=O)NCC23CC4CC(CC(C4)C2)C3)cc(C(=O)O)c1 (stereo not given),7.66,0.234 µM
O=C(O)c1cc(NC(=O)C2Cc3ccccc3CN2C(=O)c2cc3[nH]cnc3cc2C(=O)NCC23CC4CC(CC(C4)C2)C3)cc(C(=O)O)c1 (stereo not given),7.64,0.178 µM
O=C(O)c1cc(NC(=O)[C@H](Cc2ccccc2)NC(=O)c2cc3[nH]cnc3cc2C(=O)NCC23CC4CC(CC(C4)C2)C3)cc(C(=O)O)c1,9.08,0.00525 µM
O=C(O)c1cc(NC(=O)C2Cc3ccccc3CCCCN2C(=O)c2cc3[nH]cnc3cc2C(=O)NCC23CC4CC(CC(C4)C2)C3)cc(C(=O)O)c1 (stereo not given),9.13,0.00501 µM
O=C(O)c1cc(NC(=O)C2Cc3ccccc3CCCN2C(=O)c2cc3[nH]cnc3cc2C(=O)NCC23CC4CC(CC(C4)C2)C3)cc(C(=O)O)c1 (stereo not given),7.93,0.224 µM
